Experimental data: patent publication US20140271605A1, “STABLE BIOACTIVE SUBSTANCES AND METHODS OF MAKING” (ADVANCED BIONUTRITION CORP., priority 2013, published 2014)

Assay: Stability testing of the herbicides mixture suspension
Assay type: physicochemical
Conditions: 40° C. for 30 days
Procedure: Stability testing of the herbicides mixture suspension: The commercial solutions containing Glyphosate or Round-Up are mixed together, and tested along with the stable Round-Up and Glyphosate mixed suspensions of the present invention. The liquids placed in an oven at 40° C. for 30 days. The remaining activities of the herbicides in the samples are measured following standard protocols.

O=C(O)CNCP(=O)(O)O [Glyphosate]
remaining activity of the herbicide, free commercial solutions mixed together: No Glyphosate activity is detected
